Reference: the NIST ThermoML archive (doi:10.1021/je9002515)
Numbers after ± are expanded uncertainties.

Legend:
[1] = 101 kPa, Liquid, Alternating current cell with electrodes
[2] = xn = mol fraction of the nth substance listed; settings: 101 kPa, Liquid, Alternating current cell with electrodes, x2 = 0

In the case of `CC(=O)N(C)C` [N,N-dimethylethanamide], the electrical conductivity ([1]; 303.15 K) is reported as 0.0149 ± 0.0024 S/m, the electrical conductivity ([1]; 313.15 K) is reported as 0.0195 ± 0.0031 S/m and the electrical conductivity ([1]; 323.15 K) is reported as 0.024 ± 0.0038 S/m. For the same compound, the electrical conductivity ([1]; 333.15 K) was 0.0307 ± 0.0049 S/m, the electrical conductivity ([1]; 343.15 K) was 0.04 ± 0.0064 S/m and the electrical conductivity ([1]; 353.15 K) was 0.0462 ± 0.0074 S/m. It also gave an electrical conductivity ([1]; 363.15 K) of 0.0508 ± 0.0081 S/m, an electrical conductivity ([1]; 373.15 K) of 0.0534 ± 0.0086 S/m and an electrical conductivity ([1]; 383.15 K) of 0.0544 ± 0.0087 S/m. The electrical conductivity ([1]; 393.15 K) was 0.0518 ± 0.0083 S/m.
In the case of `CC(=O)N(C)C` [N,N-dimethylethanamide] + CNC(C)=O, the electrical conductivity ([2]; 303.15 K) is reported as 0.0149 ± 0.0024 S/m, the electrical conductivity ([2]; 313.15 K) is reported as 0.0195 ± 0.0031 S/m and the electrical conductivity ([2]; 323.15 K) is reported as 0.024 ± 0.0038 S/m. The electrical conductivity ([2]; 333.15 K) was 0.0307 ± 0.0049 S/m, the electrical conductivity ([2]; 343.15 K) was 0.04 ± 0.0064 S/m and the electrical conductivity ([2]; 353.15 K) was 0.0462 ± 0.0074 S/m. For the same compound, the electrical conductivity ([2]; 363.15 K) was 0.0508 ± 0.0081 S/m, the electrical conductivity ([2]; 373.15 K) was 0.0534 ± 0.0086 S/m and the electrical conductivity ([2]; 383.15 K) was 0.0544 ± 0.0087 S/m. For the same compound, the electrical conductivity ([2]; 393.15 K) was 0.0518 ± 0.0083 S/m.
With `CNC(C)=O` [N-methylacetamide] the electrical conductivity ([1]; 303.15 K) was 0.0324 ± 0.0052 S/m, the electrical conductivity ([1]; 313.15 K) was 0.0447 ± 0.0072 S/m and the electrical conductivity ([1]; 323.15 K) was 0.0614 ± 0.0098 S/m. The electrical conductivity ([1]; 333.15 K) was 0.0775 ± 0.012 S/m, the electrical conductivity ([1]; 343.15 K) was 0.105 ± 0.017 S/m and the electrical conductivity ([1]; 353.15 K) was 0.129 ± 0.021 S/m. The electrical conductivity ([1]; 363.15 K) was 0.165 ± 0.026 S/m, the electrical conductivity ([1]; 373.15 K) was 0.192 ± 0.031 S/m and the electrical conductivity ([1]; 383.15 K) was 0.219 ± 0.035 S/m. The electrical conductivity ([1]; 393.15 K) was 0.247 ± 0.04 S/m.
